Measured values reported in patent US8557532B2, “Diagnosis and treatment of drug-resistant Ewing'S sarcoma” (The University of Utah Research Foundation, priority 2010, dated 2013).

Legend:
[1] = test system: Ewing's sarcoma cells with decreased levels of GSTM4; test: MTT survival assay, wild-type (luc-RNAi) versus reduced GSTM4 (GSTM4-4-RNAi) Ewing's sarcoma cells; format: cell-based, human
Experimental: Chemotherapeutic sensitivity assays. The sensitivity of Ewing's sarcoma cells to chemotherapeutic agents was determined via the following experimental procedures. The indicated Ewing's sarcoma cells were seeded at a density of 2×10^4 cells/well in 24-well plates on day-0. On day 1, cells were incubated with varying concentrations of the indicated drug or drugs for 3 days. Subsequently, MTT cell proliferation assays were performed according to the manufacturer's instructions (Cayman Chemical Company, Ann Arbor, Mich.).
To test whether GSTM4 contributed to the chemotherapeutic resistance profile of Ewing's sarcoma, wild-type (luc-RNAi) and reduced GSTM4 (GSTM4-4-RNAi) cells were treated with increasing dosages of chemotherapeutic drugs and tested using MTT survival assays. The chemotherapeutic agents that were tested included etoposide, doxorubicin, and melphalan.
It was further determined that GSTM4 can alter the sensitivity of Ewing's sarcoma cells for fenretinide. […] It was further determined that decreased GSTM4 levels can change intracellular redox potential.
JS-K (provided by Dr. Paul Shami at the University of Utah) is a GST-activated prodrug with potent anti-neoplastic activity. A673, Ewing's sarcoma, cells with wild type (Luc-RNAi) or decreased GSTM4 levels (GSTM4-RNAi infected cells) were seeded in 24-well plates at a density of 2×10^4 cells/well. GSTM4 decreased cells or negative controls were treated with increasing concentrations of JS-K (0, 0.3125, 0.625, 1.25, 2.5, 5, or 10 μM) for 72 hours, followed by an MTT cell viability analysis.

[2] = test system: A673 cells; test: MTT cell proliferation assay in A673 Ewing's sarcoma cells; format: cell-based; conditions: Homo sapiens, 72 h, 3 days, read-out: IC50, inhibition of A673 cell proliferation
Experimental: The A673 cells were seeded at a density of 2×10^4 cells/well in 24-well plate on day 0.

SMILES	Sensitivity of cells with decreased GSTM4 levels to the drug compared to control cells [1]	IC50 [2] [µM]
CCOC(=O)N1CCN(/[N+]([O-])=N/Oc2ccc([N+](=O)[O-])cc2[N+](=O)[O-])CC1 [JS-K, O^2-(2,4-Dinitrophenyl)1-[(4-Ethoxycarbonyl)piperazin-1-yl]diazen-1-ium-1,2-diolate]	less sensitive	
O=[N+]([O-])c1ccc(SCCCCCCO)c2nonc12 [NBDHEX, 6-(7-nitro-2,1,3-benzoxadiazol-4-ylthio) hexanol]		0.5
COc1cccc2c1C(=O)c1c(O)c3c(c(O)c1C2=O)C[C@@](O)(C(=O)CO)C[C@@H]3O[C@H]1C[C@H](N)[C@H](O)[C@H](C)O1 [doxorubicin]	not sensitive	
COc1cc([C@@H]2c3cc4c(cc3[C@@H](O[C@@H]3O[C@@H]5CO[C@@H](C)O[C@H]5[C@H](O)[C@H]3O)[C@H]3COC(=O)[C@H]23)OCO4)cc(OC)c1O [etoposide]	increase in sensitivity	
CC1=C(/C=C/C(C)=C/C=C/C(C)=C/C(=O)Nc2ccc(O)cc2)C(C)(C)CCC1 [fenretinide]	more sensitive	
